How the values were obtained:
[1] = Incubation of radiolabeled PMPA prodrugs or PMPA in human whole blood; metabolites in plasma, PBMCs and RBCs; type: in vitro ADME; settings: for Metabolites (% of Total Peak Area): PMPA: human blood, 1 h
Experimental: After 1 hour, plasma, red blood cells (RBCs) and peripheral blood mononuclear cells (PBMCs) were isolated and analyzed by HPLC with radiometric detection.

[2] = Excretion and tissue distribution of radiolabelled prodrug in dogs; settings: for % Dose / Conc.: dogs, oral 10 mg-eq. PMPA/kg
Experimental: Plasma and peripheral blood mononuclear cells (PBMCs) were obtained over the 24-hr period. Urine and feces were cage collected over 24 hr. At 24 h after the dose, the animals were sacrificed and tissues removed for analysis. Total radioactivity in tissues was determined by oxidation and liquid scintillation counting.

[3] = Stability in human plasma; type: in vitro ADME
Experimental: (§1) The in vitro metabolism and stability of separated diastereomers were determined in PLCE, MT-2 extract and human plasma. A biological sample listed below, 80 μL, was transferred into a screw-capped centrifuge tube and incubated at 37° C. for 5 min. A solution containing 0.2 mg/mL of the test compound in a suitable buffer, 20 μL, was added to the biological sample and mixed. The reaction mixture, 20 μL, was immediately sampled and mixed with 60 μL of methanol containing 0.015 mg/mL of 2-hydroxymethylnaphthalene as an internal standard for HPLC analysis. The sample was taken as the time-zero sample. Then, at specific time points, the reaction mixture, 20 μL, was sampled and mixed with 60 μL of methanol containing the internal standard. The mixture thus obtained was centrifuged at 15,000 G for 5 min and the supernatant was analyzed with HPLC under the conditions described below.
(3) Human plasma (pooled normal human plasma from George King Biomedical Systems, Inc.)
In the study for human plasma, the test compound was dissolved in TBS. TBS (tris-buffered saline, Sigma) contains 0.05 M Tris, 0.0027 M potassium chloride, and 0.138 M sodium chloride. pH 7.5 at 37° C.
(§2) The HPLC analysis was carried out under the following conditions.

[4] = test system: PLCE (porcine liver carboxyesterase); experiment: in vitro; type: in vitro ADME
Experimental: as §1
(1) PLCE (porcine liver carboxyesterase from Sigma, 160 u/mg protein, 21 mg protein/mL) diluted 20 fold with PBS (phosphated-buffered saline).
In the study for PLCE, the test compound was dissolved in PBS. PBS (phosphate-buffered saline, Sigma) contains 0.01 M phosphate, 0.0027 M potassium chloride, and 0.137 M sodium chloride. pH 7.4 at 37° C.
as §2

[5] = Stability / hydrolysis in MT-2 cell extract; type: in vitro ADME
Experimental: as §1
(2) MT-2 cell extract was prepared from MT-2 cells according to the published procedure [A. Pompon, I. Lefebvre, J.-L. Imbach, S. Kahn, and D. Farquhar, “Antiviral Chemistry & Chemotherapy”, 5:91-98 (1994)] except for using HEPES buffer described below as the medium.
In the study for MT-2 cell extracts, the test compound was dissolved in HEPES buffer. HEPES buffer contains 0.010 M HEPES, 0.05 M potassium chloride, 0.005 M magnesium chloride, and 0.005 M dl-dithiothreitol. pH 7.4 at 37° C.
as §2

CC(C)OC(=O)OCOP(=O)(CO[C@H](C)Cn1cnc2c(N)ncnc21)OCOC(=O)OC(C)C.O=C(O)/C=C/C(=O)O [TDF, tenofovir disoproxil fumarate, reference compound]
Metabolites (% of Total Peak Area): PMPApp [1]: 18% | Metabolites (% of Total Peak Area): PMPA ([1]; PBMC): 50% | Metabolites (% of Total Peak Area): PMPA ([1]; Plasma/FP): 11% | Metabolites (% of Total Peak Area): PMPA ([1]; RBC/FP): 93% | % Dose ([2]; Abdominal fat, 24 h): 0.00% | Conc. ([2]; Abdominal fat, 24 h): 0.16 ug-eq/g | % Dose ([2]; Adrenal Gland, 24 h): 0.00% | Conc. ([2]; Adrenal Gland, 24 h): 1.90 ug-eq/g | % Dose ([2]; Axillary Lymph Nodes, 24 h): 0.00% | Conc. ([2]; Axillary Lymph Nodes, 24 h): 0.37 ug-eq/g | % Dose ([2]; Bile, 24 h): 0.00% | Conc. ([2]; Bile, 24 h): 9.63 ug-eq/g | % Dose ([2]; Bone Marrow, 24 h): 0.00% | Conc. ([2]; Bone Marrow, 24 h): 0.20 ug-eq/g | % Dose ([2]; Brain, 24 h): 0.00% | Conc. ([2]; Brain, 24 h): <LOD | % Dose ([2]; Cerebrospinal Fluid, 24 h): 0.00% | Conc. ([2]; Cerebrospinal Fluid, 24 h): <LOD | % Dose ([2]; Duodenum, 24 h): 0.49% | Conc. ([2]; Duodenum, 24 h): 4.96 ug-eq/g | % Dose ([2]; Eye (L + R), 24 h): 0.00% | Conc. ([2]; Eye (L + R), 24 h): 0.06 ug-eq/g | % Dose ([2]; Feces, collected over 24 hr): 40.96% | % Dose ([2]; Femoral Bone, 24 h): 0.00% | Conc. ([2]; Femoral Bone, 24 h): 0.08 ug-eq/g | % Dose ([2]; Gall bladder, 24 h): 0.00% | Conc. ([2]; Gall bladder, 24 h): 3.58 ug-eq/g | % Dose ([2]; Heart, 24 h): 0.03% | Conc. ([2]; Heart, 24 h): 0.46 ug-eq/g | % Dose ([2]; Ileum, 24 h): 0.01% | Conc. ([2]; Ileum, 24 h): 0.50 ug-eq/g | % Dose ([2]; Iliac Lymph Nodes, 24 h): 0.00% | Conc. ([2]; Iliac Lymph Nodes, 24 h): 0.51 ug-eq/g | % Dose ([2]; Inguinal Lymph Nodes, 24 h): 0.00% | Conc. ([2]; Inguinal Lymph Nodes, 24 h): 0.28 ug-eq/g | % Dose ([2]; Jejunum, 24 h): 1.34% | Conc. ([2]; Jejunum, 24 h): 3.01 ug-eq/g | % Dose ([2]; Kidney, 24 h): 4.58% | Conc. ([2]; Kidney, 24 h): 87.90 ug-eq/g | % Dose ([2]; Large Intestine, 24 h): 1.63% | Conc. ([2]; Large Intestine, 24 h): 5.97 ug-eq/g | % Dose ([2]; Liver, 24 h): 12.40% | Conc. ([2]; Liver, 24 h): 38.30 ug-eq/g | % Dose ([2]; Lungs, 24 h): 0.03% | Conc. ([2]; Lungs, 24 h): 0.53 ug-eq/g | % Dose ([2]; Mesenteric Lymph Nodes, 24 h): 0.00% | Conc. ([2]; Mesenteric Lymph Nodes, 24 h): 1.20 ug-eq/g | % Dose ([2]; PBMC): 0.00% | % Dose ([2]; Pancreas, 24 h): 0.00% | Conc. ([2]; Pancreas, 24 h): 0.57 ug-eq/g | % Dose ([2]; Pituitary Gland, 24 h): 0.00% | Conc. ([2]; Pituitary Gland, 24 h): 0.23 ug-eq/g | Conc. ([2]; Plasma at 0.25 h): 3.68 ug-eq/g | % Dose ([2]; Plasma at 24 h): 0.00% | Conc. ([2]; Plasma at 24 h): 0.20 ug-eq/g | % Dose ([2]; Prostate, 24 h): 0.00% | Conc. ([2]; Prostate, 24 h): 0.23 ug-eq/g | % Dose ([2]; Salivary Gland (L + R), 24 h): 0.00% | Conc. ([2]; Salivary Gland (L + R), 24 h): 0.45 ug-eq/g | % Dose ([2]; Skeletal Muscle, 24 h): 0.00% | Conc. ([2]; Skeletal Muscle, 24 h): 0.11 ug-eq/g | % Dose ([2]; Skin, 24 h): 0.00% | Conc. ([2]; Skin, 24 h): 0.13 ug-eq/g | % Dose ([2]; Spinal Cord, 24 h): 0.00% | Conc. ([2]; Spinal Cord, 24 h): <LOD | % Dose ([2]; Spleen, 24 h): 0.00% | Conc. ([2]; Spleen, 24 h): 0.63 ug-eq/g | % Dose ([2]; Stomach, 24 h): 0.11% | Conc. ([2]; Stomach, 24 h): 1.92 ug-eq/g | % Dose ([2]; Testes (L + R), 24 h): 0.02% | Conc. ([2]; Testes (L + R), 24 h): 1.95 ug-eq/g | % Dose ([2]; Thyroid Gland, 24 h): 0.00% | Conc. ([2]; Thyroid Gland, 24 h): 0.30 ug-eq/g | % Dose ([2]; Total GI Tract Contents, 24 h): 5.61% | % Dose ([2]; Total Recovery, 24 h): 81.10% | % Dose ([2]; Urine, collected over 24 hr): 23.72% | % Dose ([2]; Whole Blood, 24 h): 0.00% | Conc. ([2]; Whole Blood, 24 h): 0.85 ug-eq/g | main species observed in plasma ([2]; dog, in vivo, po): the parent drug | prodrug concentration in the plasma ([2]; dog, in vivo, po): below the level of assay detection | CC50 (MT-2 cells): 70 µM | Human Plasma Stability (HP) product ([3]; 37° C., TBS pH 7.5): monoPOC PMPA | Stability T 1/2 Human Plasma ([3]; human, plasma): 0.41 min | Human Plasma Stability (HP) t1/2 ([3]; human, plasma, pH 7.5): 0.41 | PLCE hydrolysis product ([4]; 37° C., PBS pH 7.4): MonoPOC PMPA | PLCE hydrolysis rate t1/2 ([4]; pH 7.4): < 0.14 min | Stability T 1/2 MT-2 Cell Extract [5]: 70.7 min | MT-2 extract hydrolysis product ([5]; 37° C., HEPES buffer pH 7.4): monoPOC PMPA | MT-2 extract hydrolysis rate t1/2 ([5]; pH 7.4): 70.7 min

— patent US20040018150A1, “Prodrugs of phosphonate nucleotide analogues and methods for selecting and making same” (priority 2003, published 2004)
